Here are results for 20 molecules from patent US20230203060A1 (GENFLEET THERAPEUTICS (SHANGHAI) INC., priority 2020, published 2023).

SMILES strings stand for the structures.

The subject of test [1] is phosphorylated ERK downstream of KRAS G12C in MIA PaCa2 cells. Briefly: Cell p-ERK detection experiment (HTRF) in MIA PaCa2. Type of test: cell-based, human. Conditions: Homo sapiens, MIA PaCa-2, 2 h, MIA PaCa2 cells, 2 hours with compound, Advance ERK phospho-T202/Y204 HTRF kit; read-out: p-ERK IC50. In short, it runs like this: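 KRAS G12C-mutant MIA PaCa2 cells (2.5E4 per well, overnight) exposed 2 h to a 3.16-fold compound dilution series at 0.1% DMSO. Lysates probed 4 h with HTRF antibodies to ERK phospho-T202/Y204; inhibition versus DMSO control and blank, IC50 by four-parameter fit.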

Test [2] concerns the target T1, KRAS G12C (Homo sapiens, UniProt P01116, G12C).
T1 construct: purchased Reactionbiology
Briefly: KRAS G12C NEA-HTRF experiment (SOS1-catalyzed displacement of GDP by GTP). Type of test: biochemical. The method, boiled down: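 His-tagged KRAS G12C preloaded with DY647-GDP was preincubated 15 min at 20 °C with compound, then exchanged with SOS1 (0.2 μM working solution) and GTP (200 μM working solution) for 2 h at 20 °C in the dark. HTRF 665/615 nm ratio with anti-His-Tb was normalised to T0 and no-compound controls; IC50 by four-parameter fit.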

T1 sequence (P01116 1-188 isoform P01116-2 G12C): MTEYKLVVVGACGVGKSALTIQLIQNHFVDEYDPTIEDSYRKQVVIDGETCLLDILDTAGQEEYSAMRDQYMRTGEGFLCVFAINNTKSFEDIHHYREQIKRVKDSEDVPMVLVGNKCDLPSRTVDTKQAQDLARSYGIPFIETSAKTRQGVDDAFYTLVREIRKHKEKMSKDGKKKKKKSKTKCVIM

As for `C=CC(=O)N1CCN2C(=O)c3c(N4CC[C@@H](OC)C4(C)C)nc(-c4c(O)cccc4F)c(F)c3OC[C@H]2C1` (single isomer, unassigned) [Z327-1], the IC50 was 66 nM in test [1] and 26 nM in test [2].
As for `C=CC(=O)N1CCN2C(=O)c3c(N4CC[C@H](OC)C4(C)C)nc(-c4c(O)cccc4F)c(F)c3OC[C@H]2C1` (single isomer, unassigned) [Z327-2], the values for the IC50 in test [1] and in test [2] were 172 nM and 64 nM, respectively.
As for `C=CC(=O)N1CCN2C(=O)c3c(N4CCO[C@](C)(COC)C4)nc(-c4c(O)cccc4F)c(Cl)c3OC[C@H]2C1` (single isomer, unassigned) [Z332-1], the concentration for half-maximal inhibition (IC50) in test [1] and in test [2] was 130 nM throughout.
Take `C=CC(=O)N1CCN2C(=O)c3c(N4CC(O)CC4(C)C)nc(-c4c(O)cccc4F)c(C)c3OC[C@H]2C1` (single isomer, unassigned) [Z336-2]: the IC50 in test [1] was 63 nM; in test [2], 27 nM.
Taken in the same sequence, the figures for `C=CC(=O)N1CCN2C(=O)c3c(N4C[C@@H](O)CC4(C)C)nc(-c4c(O)ccc(Cl)c4F)c(F)c3OC[C@H]2C1` (single isomer, unassigned) [Z340-1] were 59 nM and 27 nM.
For `C=CC(=O)N1CCN2C(=O)c3c(N4C[C@@H](O)CC4(C)C)nc(-c4c(F)ccc(Cl)c4O)c(F)c3OC[C@H]2C1` (single isomer, unassigned) [Z341-1] the same measures were 106 nM and 35 nM.
For `C=CC(=O)N1CCN2C(=O)c3c(N4Cc5nn(C)cc5[C@@H]4C)nc(-c4c(O)cccc4F)c(Cl)c3OC[C@H]2C1` (single isomer, unassigned) [Z345-2] the same measures were 61 nM and 41 nM.
Take `C=CC(=O)N1CCN2C(=O)c3c(N4CC[C@@H](N(C)C)C4(C)C)nc(-c4c(O)cccc4F)c(Cl)c3OC[C@H]2C1` (single isomer, unassigned) [Z360-1]: the concentration for half-maximal inhibition (IC50) in test [1] was found to be 85 nM; in test [2], 98.1 nM.
For `C=CC(=O)N1CCN2C(=O)c3c(N4CC[C@H](N(C)C)C4(C)C)nc(-c4c(O)cccc4F)c(Cl)c3OC[C@H]2C1` (single isomer, unassigned) [Z360-2] the same measures were 25 nM and 36.9 nM.
For `C=CC(=O)N1CCN2C(=O)c3c(N4C[C@@H](O)CC4(C)C)nc(-c4c(F)ccc(F)c4O)c(F)c3OC[C@H]2C1` (single isomer, unassigned) [Z449-1] the same measures were 151 nM and 31 nM.
On to `C=CC(=O)N1CCN2C(=O)c3c(N4CCCC4(C)C)nc(-c4c(O)cccc4F)c(Cl)c3OC[C@H]2C1` [Z22, (6aR)-8-acryloyl-4-chloro-1-(2,2-dimethylpyrrolidin-1-yl)-3-(2-fluoro-6-hydroxyphenyl)-6,6a,7,8,9,10-hexahydro-12H-pyrazino[2,1-c]pyrido[3,4-f][1,4]oxazepin-12-one], for which the IC50 in test [1] turned out to be 26 nM; in test [2], 20 nM.
Taken in the same sequence, the figures for `C=CC(=O)N1CCN2C(=O)c3c(N4CCN(C)C5(CC5)C4)nc(-c4c(O)cccc4F)c(Cl)c3OC[C@H]2C1` [Z83, (6aR)-8-acryloyl-4-chloro-3-(2-fluoro-6-hydroxyphenyl)-1-(4-methyl-4,7-diazaspiro[2 .5]octan-7-yl)-6,6a,7,8,9,10-hexahydro-12H-pyrazino[2,1-c]pyrido[3,4-f][1,4]oxazepin-12 (6aH)-one] were 107 nM and 111 nM.
For `C=CC(=O)N1CCN2C(=O)c3c(N4C[C@H](N(C)C)C[C@@H]4C)nc(-c4c(O)cccc4F)c(Cl)c3OC[C@H]2C1` [Z237-1, (6aR)-8-acryloyl-4-chloro-1-((2S,4R)-4-(dimethylamino)-2-methylpyrrolidin-1-yl)-3-(2-fluoro-6-hydroxyphenyl)-6,6a,7,8,9,10-hexahydro-12H-pyrazino[2,1-c]pyrido[3,4-f][1,4]oxazepin-12-one], the concentration for half-maximal inhibition (IC50) in test [1] was determined as 30 nM; in test [2], 122 nM.
Taken in the same sequence, the figures for `C=CC(=O)N1CCN2C(=O)c3c(N4C[C@@H](N(C)C)C[C@@H]4C)nc(-c4c(O)cccc4F)c(Cl)c3OC[C@H]2C1` [Z237-2, (6aR)-8-acryloyl-4-chloro-1-((2S,4S)-4-(dimethylamino)-2-methylpyrrolidin-1-yl)-3-(2-fluoro-6-hydroxyphenyl)-6,6a,7,8,9,10-hexahydro-12H-pyrazino[2,1-c]pyrido[3,4-f][1,4]oxazepin-12-one] were 30 nM and 65 nM.
For `C=CC(=O)N1CCN2C(=O)c3c(N4CC(CO)CC4(C)C)nc(-c4c(O)cccc4F)c(Cl)c3OC[C@H]2C1` (stereo partly drawn) [Z240, (6aR)-8-acryloyl-4-chloro-3-(2-fluoro-6-hydroxyphenyl)-1-(4-(hydroxymethyl)-2,2-dimethylpyrrolidin-1-yl)-6,6a,7,8,9,10-hexahydro-12H-pyrazino[2,1-c]pyrido[3,4-f][1,4]oxazepin-12-one] the same measures were 22 nM and 10 nM.
For `C=CC(=O)N1CCN2C(=O)c3c(N4CCC(O)C4(C)C)nc(-c4c(O)cccc4F)c(Cl)c3OC[C@H]2C1` (stereo partly drawn) [Z241, (6aR)-8-acryloyl-1-(3-hydroxy-2,2-dimethylpyrrolidin-1-yl)-4-chloro-3-(2-fluoro-6-hydroxyphenyl)-6,6a,7,8,9,10-hexahydro-12H-pyrazino[2,1-c]pyrido[3,4-f][1,4]oxazepin-12-one] the same measures were 22 nM and 18 nM.
Turning to `C=CC(=O)N1CCN2C(=O)c3c(N4CCC(OC)C4(C)C)nc(-c4c(O)cccc4F)c(Cl)c3OC[C@H]2C1` (stereo partly drawn) [Z241a, (6aR)-8-acryloyl-4-chloro-3-(2-fluoro-6-hydroxyphenyl)-1-(3-methoxy-2,2-dimethylpyrrolidin-1-yl)-6,6a,7,8,9,10-hexahydro-12H-pyrazino[2,1-c]pyrido[3,4-f][1,4]oxazepin-12-one], the IC50 in test [1] was determined as 12 nM; in test [2], 9 nM.
Taken in the same sequence, the figures for `C=CC(=O)N1CCN2C(=O)c3c(N4CC(C)(O)CC4(C)C)nc(-c4c(O)cccc4F)c(Cl)c3OC[C@H]2C1` (stereo partly drawn) [Z243, (6aR)-8-acryloyl-4-chloro-3-(2-fluoro-6-hydroxyphenyl)-1-(4-hydroxy-2,2,4-trimethylpyrrolidin-1-yl)-6,6a,7,8,9,10-hexahydro-12H-pyrazino[2,1-c]pyrido[3,4-f][1,4]oxazepin-12-one] were 19 nM and 23 nM.
For `C=CC(=O)N1CCN2C(=O)c3c(N4CC(OC)CC4(C)C)nc(-c4c(O)cccc4F)c(Cl)c3OC[C@H]2C1` (stereo partly drawn) [Z244, (6aR)-8-acryloyl-4-chloro-3-(2-fluoro-6-hydroxyphenyl)-1-(4-methoxy-2,2-dimethylpyrrolidin-1-yl)-12-oxo-6,6a,7,8,9,10-hexahydro-12H-pyrazino[2,1-c]pyrido[3,4-f][1,4]oxazepin-12-one] the same measures were 19 nM and 47 nM.
For `C=CC(=O)N1CCN2C(=O)c3c(N4CCN(CCOC)C[C@@H]4C)nc(-c4c(O)cccc4F)c(Cl)c3OC[C@H]2C1` [Z257a, (6aR)-8-acryloyl-4-chloro-3-(2-fluoro-6-hydroxyphenyl)-1-((S)-4-(2-methoxyethyl)-2-methylpiperazin-1-yl)-6,6a,7,8,9,10-hexahydro-12H-pyrazino[2,1-c]pyrido[3,4-f][1,4]oxazepin-12-one] the same measures were 26 nM and 76 nM.
